Reference: PubChem BioAssay (NCI)
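The compound was tested at five concentrations on cells cultured in 96-well plates, with a 48-hour exposure period. The concentration for full growth arrest is given as TGI.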

Columns and labels:
Assay in all cases: growth of human tumour cells (NCI), 48 h
786-0 renal = tested on: 786-0 renal
A549 NSCLC = tested on: A549 NSCLC
ACHN renal = tested on: ACHN renal
BT-549 breast = tested on: BT-549 breast
CAKI-1 renal = tested on: CAKI-1 renal
CCRF-CEM leukemia = tested on: CCRF-CEM leukemia
COLO 205 colon = tested on: COLO 205 colon
DU-145 prostate = tested on: DU-145 prostate
EKVX NSCLC = tested on: EKVX NSCLC
HCC-2998 colon = tested on: HCC-2998 colon
HCT-116 colon = tested on: HCT-116 colon
HCT-15 colon = tested on: HCT-15 colon
HL-60(TB) leukemia = tested on: HL-60(TB) leukemia
HOP-62 NSCLC = tested on: HOP-62 NSCLC
HS 578T breast = tested on: HS 578T breast
IGROV1 ovarian = tested on: IGROV1 ovarian
K-562 leukemia = tested on: K-562 leukemia
KM12 colon = tested on: KM12 colon
LOX IMVI melanoma = tested on: LOX IMVI melanoma
M14 melanoma = tested on: M14 melanoma
MALME-3M melanoma = tested on: MALME-3M melanoma
MCF7 breast = tested on: MCF7 breast
MDA-MB-231 breast = tested on: MDA-MB-231 breast
MDA-MB-435 = tested on: MDA-MB-435
MDA-N = tested on: MDA-N
MOLT-4 leukemia = tested on: MOLT-4 leukemia
NCI-H226 lung = tested on: NCI-H226 lung
NCI-H23 lung = tested on: NCI-H23 lung
NCI-H522 lung = tested on: NCI-H522 lung
NCI/ADR-RES ovarian = tested on: NCI/ADR-RES ovarian
OVCAR-3 ovarian = tested on: OVCAR-3 ovarian
OVCAR-4 ovarian = tested on: OVCAR-4 ovarian
OVCAR-5 ovarian = tested on: OVCAR-5 ovarian
OVCAR-8 ovarian = tested on: OVCAR-8 ovarian
PC-3 prostate = tested on: PC-3 prostate
RPMI-8226 leukemia = tested on: RPMI-8226 leukemia
RXF 393 renal = tested on: RXF 393 renal
SF-268 CNS = tested on: SF-268 CNS
SF-295 CNS = tested on: SF-295 CNS
SK-MEL-2 melanoma = tested on: SK-MEL-2 melanoma
SK-MEL-28 melanoma = tested on: SK-MEL-28 melanoma
SK-MEL-5 melanoma = tested on: SK-MEL-5 melanoma
SK-OV-3 ovarian = tested on: SK-OV-3 ovarian
SN12C renal = tested on: SN12C renal
SNB-19 CNS = tested on: SNB-19 CNS
SR leukemia = tested on: SR leukemia
SW-620 colon = tested on: SW-620 colon
T-47D breast = tested on: T-47D breast
TK-10 renal = tested on: TK-10 renal
U251 CNS = tested on: U251 CNS
UACC-257 melanoma = tested on: UACC-257 melanoma
UACC-62 melanoma = tested on: UACC-62 melanoma
UO-31 renal = tested on: UO-31 renal
A498 renal = tested on: A498 renal
HOP-92 NSCLC = tested on: HOP-92 NSCLC
HT29 colon = tested on: HT29 colon
NCI-H460 lung = tested on: NCI-H460 lung
SF-539 CNS = tested on: SF-539 CNS

c1ccc(-c2cc(-c3ccccc3)nc(-c3ccncc3)c2)cc1
TGI (786-0 renal): > 100 µM
TGI (A549 NSCLC): > 100 µM
TGI (ACHN renal): > 100 µM
TGI (BT-549 breast): > 100 µM
TGI (CAKI-1 renal): > 100 µM
TGI (CCRF-CEM leukemia): > 100 µM
TGI (COLO 205 colon): > 100 µM
TGI (DU-145 prostate): > 100 µM
TGI (EKVX NSCLC): > 100 µM
TGI (HCC-2998 colon): > 100 µM
TGI (HCT-116 colon): > 100 µM
TGI (HCT-15 colon): > 100 µM
TGI (HL-60(TB) leukemia): > 100 µM
TGI (HOP-62 NSCLC): 55.4 µM
TGI (HS 578T breast): > 100 µM
TGI (IGROV1 ovarian): > 100 µM
TGI (K-562 leukemia): > 100 µM
TGI (KM12 colon): > 100 µM
TGI (LOX IMVI melanoma): > 100 µM
TGI (M14 melanoma): > 100 µM
TGI (MALME-3M melanoma): > 100 µM
TGI (MCF7 breast): > 100 µM
TGI (MDA-MB-231 breast): > 100 µM
TGI (MDA-MB-435): > 100 µM
TGI (MDA-N): > 100 µM
TGI (MOLT-4 leukemia): > 100 µM
TGI (NCI-H226 lung): > 100 µM
TGI (NCI-H23 lung): > 100 µM
TGI (NCI-H522 lung): > 100 µM
TGI (NCI/ADR-RES ovarian): > 100 µM
TGI (OVCAR-3 ovarian): > 100 µM
TGI (OVCAR-4 ovarian): > 100 µM
TGI (OVCAR-5 ovarian): > 100 µM
TGI (OVCAR-8 ovarian): > 100 µM
TGI (PC-3 prostate): > 100 µM
TGI (RPMI-8226 leukemia): > 100 µM
TGI (RXF 393 renal): > 100 µM
TGI (SF-268 CNS): > 100 µM
TGI (SF-295 CNS): > 100 µM
TGI (SK-MEL-2 melanoma): > 100 µM
TGI (SK-MEL-28 melanoma): > 100 µM
TGI (SK-MEL-5 melanoma): > 100 µM
TGI (SK-OV-3 ovarian): > 100 µM
TGI (SN12C renal): > 100 µM
TGI (SNB-19 CNS): > 100 µM
TGI (SR leukemia): > 100 µM
TGI (SW-620 colon): > 100 µM
TGI (T-47D breast): > 100 µM
TGI (TK-10 renal): > 100 µM
TGI (U251 CNS): > 100 µM
TGI (UACC-257 melanoma): > 100 µM
TGI (UACC-62 melanoma): > 100 µM
TGI (UO-31 renal): > 100 µM

CCCNC(=O)c1cc(OC)c(OC)cc1NC(=O)C12CC3CC(CC(C3)C1)C2
TGI (786-0 renal): 30.6 µM
TGI (A498 renal): 31.6 µM
TGI (A549 NSCLC): 35.3 µM
TGI (ACHN renal): 30.9 µM
TGI (BT-549 breast): 31.9 µM
TGI (CAKI-1 renal): 41.3 µM
TGI (CCRF-CEM leukemia): > 100 µM
TGI (COLO 205 colon): 56.6 µM
TGI (DU-145 prostate): 35.5 µM
TGI (EKVX NSCLC): 32.3 µM
TGI (HCT-116 colon): 30.4 µM
TGI (HCT-15 colon): 32.7 µM
TGI (HL-60(TB) leukemia): > 100 µM
TGI (HOP-62 NSCLC): 34.7 µM
TGI (HOP-92 NSCLC): 34.6 µM
TGI (HS 578T breast): 51.5 µM
TGI (HT29 colon): 32.2 µM
TGI (IGROV1 ovarian): 53.3 µM
TGI (K-562 leukemia): > 100 µM
TGI (KM12 colon): 32 µM
TGI (LOX IMVI melanoma): 39.7 µM
TGI (M14 melanoma): 28.5 µM
TGI (MALME-3M melanoma): 32.9 µM
TGI (MCF7 breast): 64.2 µM
TGI (MDA-MB-231 breast): 31.4 µM
TGI (MDA-MB-435): 32.8 µM
TGI (MDA-N): 30.3 µM
TGI (MOLT-4 leukemia): > 100 µM
TGI (NCI-H226 lung): 55 µM
TGI (NCI-H23 lung): 31.6 µM
TGI (NCI-H460 lung): 43.1 µM
TGI (NCI-H522 lung): 30 µM
TGI (NCI/ADR-RES ovarian): 48.3 µM
TGI (OVCAR-3 ovarian): 35.4 µM
TGI (OVCAR-4 ovarian): 33.6 µM
TGI (OVCAR-5 ovarian): 36.6 µM
TGI (OVCAR-8 ovarian): 66.6 µM
TGI (PC-3 prostate): 35.1 µM
TGI (RPMI-8226 leukemia): 92.7 µM
TGI (RXF 393 renal): 19.3 µM
TGI (SF-268 CNS): 35 µM
TGI (SF-295 CNS): 35.9 µM
TGI (SF-539 CNS): 46.9 µM
TGI (SK-MEL-2 melanoma): 29.5 µM
TGI (SK-MEL-28 melanoma): 32.6 µM
TGI (SK-MEL-5 melanoma): > 100 µM
TGI (SN12C renal): 29.6 µM
TGI (SNB-19 CNS): 30 µM
TGI (SW-620 colon): > 100 µM
TGI (T-47D breast): 40.4 µM
TGI (TK-10 renal): 31.3 µM
TGI (U251 CNS): 30.7 µM
TGI (UACC-257 melanoma): 32.8 µM
TGI (UO-31 renal): 30.1 µM
